# Experiments:
# BALB/c mice = assay: Lung mechanics and airway reactivity to inhaled methacholine after intranasal myriocin; type: in vivo; settings: 3 h after intranasal myriocin (2 or 20 μg)
# Experimental: Animal studies described herein were conducted under protocols approved by the Institutional Animal Care and Use Committee of Weill Cornell Medical College. Female BALB/c mice, obtained from Taconic Farms (Tarrytown, N.Y.). Animals were housed under specific pathogen-free conditions and used at 6 to 8 weeks of age. Myriocin (Enzo Life Sciences, Plymouth Meeting, Pa.) was freshly prepared from a 10 mM stock solution to a 1 mM or 100 μM solution in 0.9% saline and 0.05% fatty acid free bovine serum albumin and 50 μl were administered intranasally. Control animals received the vehicle solution (1% DMSO in 0.9% saline, 0.5% BSA) or were naïve. […]
# Mice were anaesthetized with pentobarbital (100 mg/kg; American Pharmaceutical Partners, Los Angeles, Calif.), tracheostomized and mechanically ventilated at a rate of 150 breaths/min, a tidal volume of 10 ml/kg and positive end-expiratory pressure of 2-3 cm H2O using a computer-controlled animal ventilator (Sireq, Montreal, Canada). […] Rn and G were also assessed following increasing doses of methacholine (3.125, 12.5 and 50 mg/ml).
# Experiments were then performed to assess if administration of myriocin directly to the respiratory tract affects pulmonary function. […] Airway resistance (Rn) in response to increasing doses of inhaled methacholine was determined 3 h after myriocin administration. […]
# TRPM7 = assay: Lung magnesium homeostasis (TRPM6/TRPM7 mRNA, total lung magnesium) after myriocin; type: in vivo, mice
# Source text: It is proportional to the magnesium concentration.
# SPT = target: T1, SPT (Mus musculus, UniProt O35704+P97363); assay: Incorporation of 3H-serine / 3H-sphingosine in lung homogenates after intranasal myriocin; type: in vivo, mice
# T1 construct: from tissue
# T1 sequence (P97363 1-560): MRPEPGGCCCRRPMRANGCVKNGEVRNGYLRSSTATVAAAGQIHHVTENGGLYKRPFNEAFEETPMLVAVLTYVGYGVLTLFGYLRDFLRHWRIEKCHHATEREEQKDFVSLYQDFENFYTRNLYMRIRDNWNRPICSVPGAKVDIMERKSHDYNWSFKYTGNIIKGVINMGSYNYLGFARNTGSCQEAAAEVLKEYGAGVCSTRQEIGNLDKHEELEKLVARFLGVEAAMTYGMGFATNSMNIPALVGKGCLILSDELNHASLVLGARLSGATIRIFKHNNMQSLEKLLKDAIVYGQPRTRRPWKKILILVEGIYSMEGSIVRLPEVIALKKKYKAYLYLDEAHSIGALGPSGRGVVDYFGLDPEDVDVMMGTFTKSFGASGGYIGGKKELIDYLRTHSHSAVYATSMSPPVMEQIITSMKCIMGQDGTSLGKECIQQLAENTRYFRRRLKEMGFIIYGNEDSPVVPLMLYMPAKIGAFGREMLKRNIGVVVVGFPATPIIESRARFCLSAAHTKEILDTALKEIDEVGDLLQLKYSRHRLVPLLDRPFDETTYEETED
# T1 sequence (O35704 1-473): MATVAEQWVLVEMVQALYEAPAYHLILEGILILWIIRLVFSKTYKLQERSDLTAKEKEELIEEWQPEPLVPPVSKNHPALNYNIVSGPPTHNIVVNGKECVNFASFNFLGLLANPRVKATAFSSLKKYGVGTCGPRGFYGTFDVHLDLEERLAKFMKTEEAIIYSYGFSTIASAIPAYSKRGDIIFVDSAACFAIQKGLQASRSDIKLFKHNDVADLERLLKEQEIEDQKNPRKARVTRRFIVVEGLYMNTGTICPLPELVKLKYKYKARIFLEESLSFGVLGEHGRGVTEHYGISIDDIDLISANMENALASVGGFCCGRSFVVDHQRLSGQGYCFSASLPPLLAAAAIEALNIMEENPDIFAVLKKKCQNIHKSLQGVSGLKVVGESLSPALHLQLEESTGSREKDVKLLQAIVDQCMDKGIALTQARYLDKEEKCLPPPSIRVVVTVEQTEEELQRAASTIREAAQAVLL
# T1 sequence (Q8R207 1-71 partner): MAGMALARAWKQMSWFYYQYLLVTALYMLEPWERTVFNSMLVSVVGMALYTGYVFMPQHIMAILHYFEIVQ
# Experimental: Lungs were harvested following perfusion with phosphate-buffered saline (PBS, Invitrogen, Carlsbad, Calif.) containing 0.6 mM ethylenediamine tetra acetic acid dipotassium salt dehydrate (EDTA, Invitrogen) via the right ventricle to remove blood cells from the pulmonary circulation. The lungs were then homogenized in normal PBS. De-novo sphingolipid synthesis was assessed by evaluating incorporation of ^3H-serine (24.1 Ci/mmol, Perkin Elmer (Boston, Mass.) into ceramide and sphingosine. Sphingolipid synthesis through the recycling pathway was assessed by evaluating incorporation of ^3H-sphingosine (18.2 Ci/mmol, Perkin Elmer (Boston, Mass.) into ceramide and sphingomyelin. In both assays, equal amounts of fresh lung homogenates were incubated for 30 min at 37° C. with 2 μl of the radioactive tracer, followed by lyophilization to determine dry weight, lipid extraction with chloroform/methanol/water (1:1:0.9). The organic phase was evaporated, dissolved in 50 μl chloroform/methanol (1:1) spotted on […] chromatography plates (TLC) (Merck Silica gel 60, Darmstadt, Germany) and chromatographed for 25 min with chloroform-methanol-ammonium hydroxide (65:25:4 v/v). […] The TLC plate was cut at the corresponding lipid spot, mixed with scintillation fluid (Ultima Gold, Packard Instrument Company, CT) and analyzed in a scintillation counter (Perkin Elmer Wallac, Gaithersburg, Md.). […]
# Muc5ac = assay: Mucus production (PAS stain, Muc5ac mRNA) after myriocin; type: in vivo; settings: myriocin-treated mice
# Source text: Lung sections were stained with periodic acid-Schiff stain (PAS) and analyzed by light microscopy. Expression of MUC5ac (Mm01276735) was quantified by TaqMan RealTime RT-PCR as described above.
structure (smiles),measurement,setting,value
CCCCCCC(=O)CCCCCC/C=C/C[C@@H](O)[C@H](O)[C@@](N)(CO)C(=O)O [myriocin],airway reactivity (airway resistance Rn in response to inhaled methacholine),BALB/c mice; FIG. 3A,increased
same,"Baseline lung mechanical properties, such as static compliance",BALB/c mice; FIG. 3B,not altered
same,expression of TRPM6,TRPM7; data not shown,not altered
same,expression of TRPM7 in the lungs,"TRPM7; mice that had received myriocin, FIG. 5A",increased
same,lung magnesium levels,"TRPM7; myriocin-treated (20 μg) mice, FIG. 5B",reduced
same,SPT-dependent synthesis of sphinganine from 3H-serine,SPT; 3 hours following intranasal administration of myriocin,significantly decreased
same,Non-SPT-dependent syntheses of ceramides or sphingomyelins from 3H-sphingosine,"SPT; after myriocin administration, data not shown",not affected
same,mucus-producing cells on PAS-stained lung sections,Muc5ac,No differences
same,Expression of Muc5ac in the lungs,Muc5ac; FIG. 4K,unchanged

# From US10159678B2, “Methods to decrease susceptibility to asthmatic bronchoconstriction” (Cornell University, priority 2012, dated 2018)
